Source: ChEMBL document CHEMBL6153141, “Design, Synthesis, and Mechanism Study of Novel BMX Inhibitors Based on the Core of 1,3,5-Triazin-2-Amine for the Treatment of Gastric Carcinoma” (J Med Chem, 2025)
Activity calls are given as the source filed them. The calls are words filed in the database; no cut-off is given here.

Legend:
MGC-803 [1] = assay: Anti-invasive activity in human MGC-803 cells assessed as decrease in invasion ability at 10 to 20 uM incubated for 48 hrs by transwell assay; type: functional, cell-based; details: dose 10-20 µM
HepG2 = assay: Anticancer activity against human HepG2 cells assessed as inhibition of cell proliferation incubated for 72 hrs by MTT assay; type: functional, cell-based; details: HepG2, 72 h
MCF7 = assay: Anticancer activity against human MCF7 cells assessed as inhibition of cell proliferation incubated for 72 hrs by MTT assay; type: functional, cell-based; details: MCF7, 72 h
[2] = Toxicity in female BALB/c nude mouse model xenografted with human HGC-27 cells assessed as body weight loss at 30 mg/kg, ip administered for 21 days; type: organism-based; details: in vivo, 504 h, time 21 day
AGS = assay: Anticancer activity against human AGS cells assessed as inhibition of cell proliferation incubated for 72 hrs by MTT assay; type: functional, cell-based
HGC-27 [3] = assay: Induction of apoptosis in human HGC-27 cells assessed as increase in cleaved caspase 9 level incubated for 48 hrs by Western blot analysis; type: functional, cell-based; details: dose 5-15 µM
HGC-27 [4] = assay: Antiproliferative activity against human HGC-27 cells assessed as inhibition of cell viability upto 50 uM by MTT assay; type: functional, cell-based; details: time 24-72 hrs
[5] = Metabolic stability in rat liver microsomes assessed as intrinsic clearance at 100 uM measured upto 60 mins in presence of NADPH by LC-MS/MS analysis; type: ADME, Microsome; details: read-out: CLH
[6] = Toxicity in female BALB/c nude mouse model xenografted with human HGC-27 cells assessed as effect on liver at 30 mg/kg, ip administered for 21 days by H and E staining based analysis; type: organism-based; details: in vivo, 504 h, time 21 day
HGC-27 [7] = assay: Induction of apoptosis in human HGC-27 cells assessed as increase in cleaved PARP level incubated for 48 hrs by Western blot analysis; type: functional, cell-based; details: dose 5-15 µM
MDA-MB-231 = assay: Anticancer activity against human MDA-MB-231 cells assessed as inhibition of cell proliferation incubated for 72 hrs by MTT assay; type: functional, cell-based; details: MDA-MB-231, 72 h
[8] = Toxicity in female BALB/c nude mouse model xenografted with human HGC-27 cells assessed as effect on kidney at 30 mg/kg, ip administered for 21 days by H and E staining based analysis; type: organism-based; details: in vivo, 504 h, time 21 day
[9] = Tmax in Sprague-Dawley rat at 5 mg/kg, po or 5 mg/kg, iv measured after 24 hrs by LC-MS/MS analysis; type: ADME, organism-based; details: in vivo
MGC-803 [10] = assay: Induction of apoptosis in LC3B knockout human MGC-803 cells assessed as increase in cleaved PARP level at 20 uM by Western blot analysis; type: functional, cell-based
[11] = Cmax in Sprague-Dawley rat at 5 mg/kg, po or 5 mg/kg, iv measured after 24 hrs by LC-MS/MS analysis; type: ADME, organism-based; details: in vivo
Cytochrome P450 1A2 = Cytochrome P450 1A2 (Homo sapiens, UniProt P05177); assay: Inhibition of CYP1A2 in human liver microsomes using phenacetin as substrate preincubated for 5 mins followed by NADPH addition and measured after 10 mins by LC-MS/MS analysis; type: ADME, Microsome
Sequence of Cytochrome P450 1A2 (P05177 whole entry): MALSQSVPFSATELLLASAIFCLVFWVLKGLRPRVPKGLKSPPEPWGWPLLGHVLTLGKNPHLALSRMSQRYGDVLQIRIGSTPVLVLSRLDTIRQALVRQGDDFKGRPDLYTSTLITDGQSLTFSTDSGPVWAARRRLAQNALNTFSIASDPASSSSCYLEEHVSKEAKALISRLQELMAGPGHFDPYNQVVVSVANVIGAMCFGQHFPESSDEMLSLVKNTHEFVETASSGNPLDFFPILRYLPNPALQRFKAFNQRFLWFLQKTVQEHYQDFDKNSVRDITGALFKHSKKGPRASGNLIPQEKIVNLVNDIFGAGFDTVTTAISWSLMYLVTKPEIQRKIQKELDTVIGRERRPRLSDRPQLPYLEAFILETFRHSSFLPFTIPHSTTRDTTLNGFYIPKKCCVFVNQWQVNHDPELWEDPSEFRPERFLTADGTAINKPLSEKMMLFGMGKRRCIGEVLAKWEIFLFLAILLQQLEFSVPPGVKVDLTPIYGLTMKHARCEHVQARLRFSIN

MGC-803 [12] = assay: Anticancer activity against human MGC-803 cells assessed as inhibition of cell proliferation incubated for 72 hrs by MTT assay; type: functional, cell-based; details: MGC-803, 72 h
HCT-116 = assay: Anticancer activity against human HCT-116 cells assessed as inhibition of cell proliferation incubated for 72 hrs by MTT assay; type: functional, cell-based; details: HCT-116, 72 h
HGC-27 [13] = assay: Cell cycle arrest in human HGC-27 cells assessed as accumulation of cells at G1 phase at 5 to 15 uM incubated for 48 hrs by flow cytometric analysis; type: functional, cell-based; details: dose 5-15 µM
A549 = assay: cells; details: Homo sapiens, A549, 72 h
Description: Anticancer activity against human A549 cells assessed as inhibition of cell proliferation incubated for 72 hrs by MTT assay

[14] = Metabolic stability in human liver microsomes assessed as intrinsic clearance at 100 uM measured upto 60 mins in presence of NADPH by LC-MS/MS analysis; type: ADME, Microsome; details: read-out: CLH
HGC-27 [15] = assay: cells; details: Homo sapiens, HGC-27, 48 h
Description: Antiproliferative activity against human HGC-27 cells assessed as inhibition of cell viability incubated for 48 hrs by MTT assay

[16] = Cytotoxicity against HEK293 cells assessed as inhibition of cell proliferation incubated for 72 hrs by MTT assay; type: toxicity, cell-based; details: human
MGC-803 [17] = assay: Inhibition of AKT-mTOR signaling in human […] cells assessed as decrease in phosphorylated mTOR expression at 10 to 20 uM incubated for 48 hrs by Western blot analysis; type: cell-based; details: dose 10-20 µM
HGC-27 [18] = assay: Induction of apoptosis in LC3B knockout human HGC-27 cells assessed as increase in cleaved PARP level at 15 uM by Western blot analysis; type: functional, cell-based
HGC-27 [19] = assay: Inhibition of AKT-mTOR signaling in human HGC-27 cells assessed as decrease in phosphorylated mTOR expression at 5 to 15 uM incubated for 48 hrs by Western blot analysis; type: cell-based; details: dose 5-15 µM
[20] = molecular target: Cytoplasmic tyrosine-protein kinase BMX (Homo sapiens) (UniProt P51813); assay: Irreversible inhibition of BMX in human HGC-27 cells at 15 uM preincubated for 48 hrs followed by compound washout and measured within 6 hrs by Western blot analysis; type: cell-based
Sequence of Cytoplasmic tyrosine-protein kinase BMX (Homo sapiens) (P51813 whole entry): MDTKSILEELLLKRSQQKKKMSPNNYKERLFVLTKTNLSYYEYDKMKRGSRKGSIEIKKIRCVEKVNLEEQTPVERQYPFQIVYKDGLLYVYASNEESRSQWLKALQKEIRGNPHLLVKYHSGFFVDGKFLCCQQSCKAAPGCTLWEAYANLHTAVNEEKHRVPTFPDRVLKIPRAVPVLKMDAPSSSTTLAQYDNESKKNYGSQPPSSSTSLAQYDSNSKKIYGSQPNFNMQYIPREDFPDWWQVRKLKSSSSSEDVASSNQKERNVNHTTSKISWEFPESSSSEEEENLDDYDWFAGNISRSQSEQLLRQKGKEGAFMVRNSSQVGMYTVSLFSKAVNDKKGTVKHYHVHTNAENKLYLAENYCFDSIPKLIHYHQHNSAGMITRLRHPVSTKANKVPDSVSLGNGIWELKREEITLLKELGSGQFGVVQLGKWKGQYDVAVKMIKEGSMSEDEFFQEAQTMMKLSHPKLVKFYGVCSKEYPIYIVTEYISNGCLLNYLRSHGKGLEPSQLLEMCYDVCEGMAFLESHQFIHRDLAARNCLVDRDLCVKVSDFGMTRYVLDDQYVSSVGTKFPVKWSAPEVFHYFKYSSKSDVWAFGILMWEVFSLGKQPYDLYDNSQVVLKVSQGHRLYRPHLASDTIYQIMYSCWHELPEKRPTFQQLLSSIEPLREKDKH

HGC-27 [21] = assay: Anti-invasive activity in human HGC-27 cells assessed as decrease in invasion ability at 5 to 15 uM incubated for 48 hrs by transwell assay; type: functional, cell-based; details: dose 5-15 µM
HGC-27 [22] = assay: Antiproliferative activity against human HGC-27 cells assessed as inhibition of cell viability incubated for 24 to 72 hrs by MTT assay; type: functional, cell-based; details: dose <= 50.0 µM, time 24-72 hrs
HGC-27 [23] = assay: Antitumor activity against human HGC-27 cells xenografted in female BALB/c nude mouse model assessed as reduction in tumor growth at 30 mg/kg/day, ip administered for 21 days relative to control; type: functional; parameters: scale not given: the % may be the effect or the level left; details: time 21 day
HGC-27 [24] = assay: Antitumor activity against human HGC-27 cells xenografted in female BALB/c nude mouse model assessed as reduction in tumor weight at 30 mg/kg/day, ip administered for 21 days; type: functional, organism-based; details: time 21.0 day
Cytochrome P450 2C9 = Cytochrome P450 2C9 (Homo sapiens, UniProt P11712); assay: Inhibition of CYP2C9 in human liver microsomes using tolbutamide as substrate preincubated for 5 mins followed by NADPH addition and measured after 10 mins by LC-MS/MS analysis; type: ADME, Microsome
Sequence of Cytochrome P450 2C9 (P11712 whole entry): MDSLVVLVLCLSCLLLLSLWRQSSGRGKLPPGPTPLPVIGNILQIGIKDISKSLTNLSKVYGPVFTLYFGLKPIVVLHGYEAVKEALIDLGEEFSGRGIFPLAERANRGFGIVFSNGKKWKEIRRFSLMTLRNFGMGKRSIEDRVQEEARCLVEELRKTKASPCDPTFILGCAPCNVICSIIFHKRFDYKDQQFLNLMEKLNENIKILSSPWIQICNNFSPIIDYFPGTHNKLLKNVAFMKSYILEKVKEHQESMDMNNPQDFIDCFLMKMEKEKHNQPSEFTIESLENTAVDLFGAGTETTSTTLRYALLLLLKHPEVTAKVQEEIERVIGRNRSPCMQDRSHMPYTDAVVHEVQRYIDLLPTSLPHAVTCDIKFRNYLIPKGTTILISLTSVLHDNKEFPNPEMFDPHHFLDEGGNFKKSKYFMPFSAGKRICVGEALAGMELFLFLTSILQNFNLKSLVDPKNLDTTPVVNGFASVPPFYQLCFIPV

HGC-27 [25] = assay: Induction of apoptosis in human HGC-27 cells assessed as increase in apoptotic cells at 5 to 15 uM incubated for 48 hrs by Annexin V-FITC/PI staining based flow cytometric analysis; type: functional, cell-based; details: dose 5-15 µM
MGC-803 [26] = assay: Antiproliferative activity against human MGC-803 cells assessed as reduction in number of EdU-positive cells incubated for 48 hrs by confocal laser scanning microscopic analysis; type: functional, cell-based; details: dose 5-15 µM
Cytochrome P450 3A4 = Cytochrome P450 3A4 (Homo sapiens, UniProt P08684); assay: Inhibition of CYP3A4 in human liver microsomes using testosterone as substrate preincubated for 5 mins followed by NADPH addition and measured after 10 mins by LC-MS/MS analysis; type: ADME, Microsome
Sequence of Cytochrome P450 3A4 (P08684 whole entry): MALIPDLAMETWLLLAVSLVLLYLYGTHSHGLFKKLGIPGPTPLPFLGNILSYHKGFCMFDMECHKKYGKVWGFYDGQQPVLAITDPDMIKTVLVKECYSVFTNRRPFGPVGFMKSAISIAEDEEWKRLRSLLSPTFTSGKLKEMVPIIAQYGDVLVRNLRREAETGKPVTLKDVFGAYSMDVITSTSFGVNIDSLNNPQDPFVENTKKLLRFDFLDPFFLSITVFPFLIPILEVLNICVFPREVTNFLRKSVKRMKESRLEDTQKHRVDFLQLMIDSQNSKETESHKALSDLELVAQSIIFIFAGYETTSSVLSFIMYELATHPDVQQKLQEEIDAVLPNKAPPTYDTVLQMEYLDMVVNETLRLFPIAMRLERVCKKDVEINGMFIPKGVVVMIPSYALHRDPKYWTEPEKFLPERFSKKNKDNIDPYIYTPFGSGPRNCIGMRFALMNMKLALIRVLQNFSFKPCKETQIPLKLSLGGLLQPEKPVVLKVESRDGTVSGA

[27] = molecular target: Tyrosine-protein kinase BTK (Homo sapiens, UniProt Q06187); assay: Inhibition of BTK (unknown origin) in presence of ATP at Km concentration
Sequence of Tyrosine-protein kinase BTK (Q06187 whole entry): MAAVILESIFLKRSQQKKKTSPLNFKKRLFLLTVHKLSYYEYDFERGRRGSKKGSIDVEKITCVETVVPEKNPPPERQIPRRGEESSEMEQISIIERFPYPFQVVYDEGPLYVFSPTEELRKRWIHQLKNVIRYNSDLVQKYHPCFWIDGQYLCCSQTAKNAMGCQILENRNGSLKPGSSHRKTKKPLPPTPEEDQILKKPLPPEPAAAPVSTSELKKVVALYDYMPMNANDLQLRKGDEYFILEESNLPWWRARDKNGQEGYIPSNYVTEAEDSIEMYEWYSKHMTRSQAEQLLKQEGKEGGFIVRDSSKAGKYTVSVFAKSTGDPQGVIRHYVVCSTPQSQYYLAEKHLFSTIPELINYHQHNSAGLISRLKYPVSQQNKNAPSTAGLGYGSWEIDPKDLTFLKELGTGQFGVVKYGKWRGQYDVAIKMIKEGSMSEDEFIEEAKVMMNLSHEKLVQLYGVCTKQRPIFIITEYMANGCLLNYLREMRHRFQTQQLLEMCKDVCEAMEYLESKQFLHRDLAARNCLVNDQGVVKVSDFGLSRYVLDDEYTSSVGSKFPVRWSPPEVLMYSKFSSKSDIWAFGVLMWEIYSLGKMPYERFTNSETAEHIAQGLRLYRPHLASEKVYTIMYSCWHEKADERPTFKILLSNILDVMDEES

MGC-803 [28] = assay: Effect on mTOR expression in human MGC-803 cells at 10 to 20 uM incubated for 48 hrs by Western blot analysis; type: functional, cell-based; details: dose 10-20 µM

Question: Which results are given for C=CS(=O)(=O)N1CCC[C@@H](Nc2nc(N)nc(Nc3cccc(Oc4ccccc4)c3)n2)C1?
Answer: Activity (MGC-803 [1]): Active; IC50 (HepG2): > 32 µM; IC50 (MCF7): 8.3 µM; Activity [2]: Non-toxic; IC50 (AGS): 8 µM; Activity (HGC-27 [3]): Dose-dependent-effect; Activity (HGC-27 [4]): Time-dependent-effect; microsomal CLint at 100 µM [5]: 304 µL/min/mg; Activity [6]: Non-toxic; Activity (HGC-27 [7]): Dose-dependent-effect; IC50 (MDA-MB-231): 19.7 µM; Activity [8]: Non-toxic; Tmax [9]: 6 min; Activity (MGC-803 [10]): Active; Cmax [11]: 73.5 ng/mL; IC50 (Cytochrome P450 1A2): > 100 µM; IC50 (MGC-803 [12]): 14.4 µM; IC50 (HCT-116): 15.9 µM; Activity (HGC-27 [13]): Active; IC50 (A549): 29.4 µM; microsomal CLint at 100 µM [14]: 214 µL/min/mg; IC50 (HGC-27 [15]): 10.5 µM; IC50 at 72 h [16]: > 32 µM; inhibition (MGC-803 [17]): Active; Activity (HGC-27 [18]): Active; inhibition (HGC-27 [19]): Active; inhibition [20]: Active; Activity (HGC-27 [21]): Active; Activity (HGC-27 [22]): Dose-dependent-effect; Activity (HGC-27 [23]): 49.93%; Activity (HGC-27 [24]): Active; IC50 (Cytochrome P450 2C9): 16.8 µM; Activity (HGC-27 [25]): Active; Activity (MGC-803 [26]): Dose-dependent-effect; IC50 (Cytochrome P450 3A4): > 100 µM; IC50 [27]: 0.187 µM; Activity (MGC-803 [28]): inactive
